Reference: US11684598B2, “Use of cannabinoids in the treatment of epilepsy” (priority 2015, dated 2023)
Like-named read-outs stand apart in the source and are kept apart here.

Legend:
[1] = system: PTZ-induced generalised seizures; assay: Acute PTZ-induced model of generalised seizure; format: in vivo, rat
Description: Adult male Wistar Kyoto rats were used in the acute PTZ model of seizure (>P24, 70-110 g). Animals were housed five per cage in a heat regulated room (21° C.) on a 12:12 h day/night cycle (lights on 0800) in 50% humidity and given ad libitum access to standard laboratory chow (PCD Mod C, Special Diet Services, Wiltham, UK) and water. All procedures were undertaken during white light hours.
(§1) A PTZ (Sigma-Aldrich, Poole, UK) stock solution was made in 0.9% w/v NaCl for the experimental procedure.
PTZ antagonises GABA inhibition via binding to the t-butyl-bicycl-phosphorothionate site of GABAA receptors. Moreover, this chemically-induced model can be indicative of effects against absence seizures. PTZ (90 mg/kg) was used to induce seizures in adult male Wistar rats (n=15 per group) with experiment dose randomised using a Latin square design. Animals were placed in their 6 L Perspex tanks and allowed to acclimatise to their environment for 10 min, before receiving one of the cannabinoid doses (see Table 5) in vehicle, or volume-matched dose of vehicle alone to serve as a negative control. 60 min after test compound or vehicle administration, animals were injected with PTZ (90 mg/kg, i.p.) to induce seizures and animal behaviour was recorded for 30 min.
Videos of PTZ-induced seizures were scored offline with a standard seizure severity scale appropriate for generalised seizures (Table 6).
Videos of seizure behaviour generated from the custom built observational system were scored offline according to seizure scales appropriate for PTZ model (Table 6) using Observer Video-Pro software (Noldus, Wageningen, The Netherlands). For the PTZ model of seizure, intra- and inter-observer agreements of behaviour scoring were assessed using the reliability analysis function of the observer Video-Pro software: 1 s tolerance window; Cohen's Kappa coefficient≥0.95.
Specific markers of seizure behaviour and development were assessed and compared between vehicle control and drug groups. The latency (s) to seizure onset and the percentage of animals that developed tonic-clonic seizures was noted (see Table 6). In addition, the maximum seizure severity and the percentage mortality in each group were determined for the acute PTZ model of generalised seizure.
The effect of drug on latency to seizure onset and maximum seizure severity were assessed using Krustal-Wallis with post-hoc Mann-Whitney U-tests. Drug effects on the percentage of animals that developed tonic-clonic seizures and percentage mortality were assessed using Chi-squared with post-hoc Fisher exact tests. In all cases, P≤0.05 was considered significant.

[2] = system: D. discoideum cell growth; assay: D. discoideum growth assay; format: cell-based, Dictyostelium discoideum
Description: Wild type (A×2) D. discoideum cells were grown in shaking culture (in HL5 medium) for two days prior to growth assays. Cells (9900 in 495 μl of media) were added to each well of a 24 well plate and 5 μl of cannabinoid in DMSO (or DMSO only) was added to each well to achieve each described concentration (1% final DMSO concentration), and cells were maintained at 22° C. Cells were counted at 72 hours, and then every 24 hours. Quadruplicate repeats were used for each concentration.

[3] = Formulation analysis (decarboxylation of CBDA to CBD); format: physicochemical; conditions: 2:1:17 vehicle of ethanol, cremophor and saline
Text: as §1
Formulation analysis was undertaken to determine whether CBDA decarboxylated to CBD because of temperature and/or the excipients in the formulation. […] Therefore, CBDA was not modified during formulation, and a 2:1:17 ratio can be used in future investigations for this phytocannabinoid.

[4] = system: D. discoideum development; assay: D. discoideum development assay; format: cell-based, Dictyostelium discoideum
Description: Wild type (A×2) D. discoideum cells were grown in HL5 shaking culture for two days prior to development assay. Cells were washed in phosphate buffer (KK2; 20 mM Potassium phosphate buffer, pH 6.1), and 1×10^7 cells were spread onto nitrocellulose filters (Millipore, Cork). Absorbent pads (Millipore, Cork), divided into quarters, were placed in 2 ml culture dishes and soaked with 0.5 ml KK2 containing the cannabinoids at 20 μM. 1 mM Valproic acid was used as a positive control while KK2 containing 1% DMSO was used as a solvent only control. Nitrocellulose filters containing cells were quartered and place upon absorbent pads and maintained in a humid environment at 22° C. for 24 h. Fruiting body morphology was recorded using a dissection microscope and camera.

[5] = system: D. discoideum growth upon R. planticola bacterial plates; assay: Bacterial plate screen; format: cell-based, Dictyostelium discoideum; conditions: CBDA 12.3 μM, CBD 16.7 μM; 4 days
Description: Heat killed (75° C. for 30 minutes) R. planticola was spread onto the plates and ˜50 wild-type A×2 cells were added and left to grow at 22° C. Plates were checked regularly for colonies.

[6] = Toxicokinetics from toxicological studies in dogs, daily oral (gavage) administration; format: in vivo, dog; conditions: dog, plasma, po, 100 mg/kg, Day 1, mean; for AUC0-t: read-out: AUC0-t; for Cmax: read-out: Cmax
Description: Samples were taken from the jugular vein into lithium heparin. Samples were mixed gently by hand then continuously for at least 2 minutes on automatic mixer and placed in a Kryorack until centrifugation, which was carried out at approximately 4° C. as soon as practicable. The resultant plasma was separated under low light conditions, transferred to uniquely labelled clear glass vials, placed in light proof boxes and frozen immediately at <−50° C.

[7] = female, comparative Table 11, females
[8] = male, comparative Table 10, males

Row | Compound | effect on percentage mortality ([1]; 100 mg/kg CBD (P≤0.01), 100 mg/kg CBDA (P=0.0656), CBD/CBDA ratio (P=0.0656)) | effect on latency to seizure onset ([1]; 100 mg/kg CBD (P≤0.05), CBD/CBDA 9:1 (P≤0.05), CBDA 100 mg/kg (P=0.0929)) | median score for the maximum seizure severity ([1]; 100 mg/kg, PTZ 90 mg/kg i.p. 60 min after compound, scale of Table 6, n=15) | effect on incidence of tonic-clonic seizures ([1]; 100 mg/kg, P≤0.1) | effect on seizure severity vs vehicle control ([1]; CBDA 100 mg/kg, CBD/CBDA 9:1 ratio (90/10 mg/kg), P≤0.05) | IC50 ([2]; Dictyostelium discoideum, 168 h, read-out: growth inhibitory constant (IC50)) [nM] | concentration blocking growth ([2]; growth over one week) [µM] | concentration significantly inhibiting cell growth (P<0.05) ([2]; growth over one week) [µM] | conversion of CBDA to CBD during formulation [3] | effect on development (fruiting body morphology) ([4]; 20 μM, 24 h on nitrocellulose filter) | cell survival (colony number) compared to control (solvent only) [5] | AUC0-t [6, 7] [µg·h/mL] | Cmax [6, 7] [ng/mL] | AUC0-t [6, 8] [µg·h/mL] | Cmax [6, 8] [ng/mL] | effect on development (fruiting body morphology) ([4]; 1 mM, positive control, 24 h)
1 | C=C(C)[C@@H]1CCC(C)=C[C@H]1c1c(O)cc(CCCCC)c(C(=O)O)c1O [CBDA, Cannabidiolic acid] | trend towards a significant reduction | trend towards increasing the latency to seizure onset | 3 | trend towards a reduction in tonic-clonic seizures | significant anti-convulsant effects | 300 | 20 | 0.08 | not converted to CBD during formulation | able to aggregate and develop to form mature fruiting bodies | No difference in colony number | 179 | 38600 | 80.5 | 24900 | –
2 | CCCC(CCC)C(=O)O [valproic acid] | – | – | – | – | – | – | – | – | – | – | – | – | – | – | – | able to aggregate but unable to undergo development to form fruiting bodies
